# Source: US20110053860A1, “COX-2 function and wound healing” (priority 2001, published 2011)
# How the values were obtained:
# [1] = test system: rat closed femur fracture model; experiment: Radiographic analysis of femur fracture healing in NSAID treated rats; assay type: in vivo, male Sprague-Dawley rats; details: for average radiograph score (union 1 point, mal-union 0.5 points, non-union 0 points): 8-week post-fracture radiographs, 7 blinded observers, control rats 0.71
# Procedure: (§1) A total of 253 male Sprague-Dawley rats (584.+−0.62 g) were fed a standard diet and kept caged separately in a constant temperature and humidity environment. All rats were 6-9 months old at the beginning of the experiment. Drugs were administered daily by gavage beginning two days prior to fracture. Animals were randomly selected for each treatment group.
# (§2) The rats were anesthetized by intraperitoneal injection of ketamine (40 mg/kg) and xylazine (5 mg/kg). Under aseptic conditions, a medial parapatellar incision (0.4-0.5 cm) was made in the right hindlimb and the patella was dislocated laterally. The medullary canal was entered through the intercondylar notch and reamed with an 18-gauge needle. A 1.1 mm stainless steel pin (Small Parts Inc., Miami Lakes, Fla.) was then inserted into the canal and secured in the proximal part of the greater trochanter by tamping. The distal portion of the pin was then cut flush with the femoral condyles and the patella dislocation was reduced. The soft tissue and skin were closed with 4-0 vicryl sutures. After closing, the diaphysis of the pinned femur was fractured by means of a three-point bending device as described by Bonnarens and Einhorn (Bonnarens and Einhorn 1984).
# Radiographs were made post-fracture to confirm the position and quality of each fracture and at sacrifice to determine the degree of healing. In addition several rats were selected randomly to produce serial radiographs (at least 2 rats per treatment group). Radiographs were made of these rats weekly under anesthesia until the experimental endpoint (8 weeks). Radiographs of mice were also made under anesthesia. All radiographs were made using a 43805N Faxitron (Hewlett-Packard, McMinnville, Oreg.) and Kodak MinR-2000 mammography film.
# Radiographs were made immediately following fracture production and then every week till the end point of the experiments (8 weeks post-fracture).
# In addition to the serial radiographs made for certain rats, all animals in this study were examined radiographically immediately post-fracture and when euthanized. A random, blinded sample of the 8-week post-fracture radiographs were independently examined by 7 observers and scored as a union (1 point), mal-union (0.5 points), or non-union (0 points).
# [2] = test system: rat closed femur fracture model; experiment: Torsional mechanical testing of fractured femurs; assay type: in vivo, male Sprague-Dawley rats; details: for normalized shear stress / normalized torsional rigidity / normalized peak torque / normalized maximum shear stress: percentage of contralateral unfractured femur; for normalized shear stress: no drug 36; for Shear Modulus, mean / Peak Torque (Tmax), mean: fractured femur; for Peak Torque (Tmax), mean: not normalized; for Mal-Union (Stage III), frequency / Non-Union (Stage I/II), frequency / Union (Stage IV), frequency: mechanically tested fractured femurs at 8 weeks post-fracture; for normalized maximum shear stress: no drug 48; for effect on fracture healing at the dose and treatment regime used: daily gavage, indomethacin 1 mg/kg, celecoxib 4 mg/kg, rofecoxib 3 mg/kg
# Procedure: as §1, with “group. […] No drug (control) rats were not initially gavaged but later rats were gavaged with water and no difference was noted between the no drug rats that had been gavaged and those that had not. No statistically significant differences were found in animal weight changes during the experiments.” for “group.”
# as §2
# Animals within each treatment group were sacrificed at 4, 6, and 8 weeks post-fracture by CO2 asphyxiation. Animals with oblique, comminuted, or infected fractures were not used for mechanical testing. Both femora were removed and cleaned of all soft tissue leaving the fracture callus undisturbed and then immediately processed for mechanical testing. The samples were wrapped in saline soaked gauze to prevent dehydration between steps. Measurements of the femora were taken using digital calipers to determine femur length and external callus dimensions. The intramedullary pin was removed from the fractured femur and a 1 mm-diameter stainless steel pin (˜0.8 cm length) was inserted at the proximal and distal end perpendicular to the long axis of the bone to prevent slipping in the potting material. The intact femur was also pinned as described above. The femoral ends were potted in 1-inch hexnuts using a low melt temperature metal (Wood's metal, Alfa Aesar, Ward Mill, Mass.). Once potted, the gage length (L) of each femur was measured. Torsional testing was conducted using a servohydraulic testing machine (MTS, Eden, Praire, Minn.) with a 20 Nm reaction torque cell (Interface, Scottsdale, Ariz.). The testing was carried out to failure at a rate of 2°/sec and a data recording rate of 20 Hz. Both the fractured and intact femora were tested in internal rotation in proper anatomic orientation. The peak torque and angle at failure were calculated from the load-deformation curves. Internal fracture callus dimensions were measured after mechanical testing. From the callus dimensions, the polar moment of inertia (J) was calculated based upon a hollow ellipse model (Bell et al. 1941; Engesaeter et al. 1978). The equations used to derive torsional rigidity, shear stress, shear modulus, and J were as follows (Popov 1968): (1) Torsional Rigidity: (Tmax·L)/φ where Tmax is the peak torque value in Nmm, L is the gage length in mm, and φ is the angle at failure in radians. (2) Shear Stress: (Tmax·Rmax)/J where Rmax is the largest radial dimension of the fracture callus in mm (ao) and J is the polar moment of inertia. […]
# [3] = male rats, single drug dose; cited from earlier work
# [4] = test system: rat closed femur fracture model; experiment: Histology of fracture callus; assay type: in vivo, male Sprague-Dawley rats; details: for histology of the healing femur fractures compared to untreated control rat: 2 weeks post-fracture; for cartilage in the fracture callus: 3 and 4 weeks post-fracture; for healing of fractured femurs by histology: 6 and 8 weeks post-fracture
# Procedure: as §1, with “group. […] No drug (control) rats were not initially gavaged but later rats were gavaged with water and no difference was noted between the no drug rats that had been gavaged and those that had not. No statistically significant differences were found in animal weight changes during the experiments.” for “group.”
# as §2
# Rats were sacrificed at 2, 3, 4, 6, and 8 weeks post-fracture by CO2 asphyxiation. Both femora were resected and the stainless steel pin was removed from the medullary canal. The harvested femora were fixed in 10% buffered formalin and embedded in polymethylmethacrylate following standard histological techniques for calcified tissue. The samples were sectioned sagitally through the fracture callus using an Isomet diamond saw (Buehler Ltd., Lake Bluff, Ill.), mounted on plexiglass slides, and polished to a thickness of 100 μ.m. The slides were then stained with van Gieson's picrofuchsin and Stevenel's blue in order to identify new bone growth and cartilage formation (Maniatopoulos et al. 1986). Mice femora were fixed, decalcified, paraffin embedded, sectioned, and stained with Masson's trichrome stain. The samples were viewed and photomicrographs were taken using an Olympus BH2-RFCA microscope or an Olympus SZ40 microscope.
# [5] = test system: rat closed femur fracture model; details: in vivo
# From the text: Experimental treatment group values were compared to the no drug values using a χ^2 analysis. Significant differences are noted with an asterisk (P<0.01).
# Pin slippage is dislodgement of the intramedullary stainless steel rod used to stabilize the fracture and permit the rat to weight-bear on the fractured femur. Once fracture stability was lost, the rat was euthanized since the rat could no longer weight-bear on the femur and since the callus would be re-injured and thus alter healing. […] Animals with these complications were excluded.
# [6] = humans, depending upon drug dose; cited from earlier work
# [7] = molecular target: COX-2 (Homo sapiens, UniProt P35354); details: cited from earlier work
# [8] = 6 weeks post-fracture, no drug 89
# [9] = 8 weeks post-fracture, no drug 88
# [10] = 8 weeks post-fracture, no drug 101
# COX-2, sequence (P35354 18-604): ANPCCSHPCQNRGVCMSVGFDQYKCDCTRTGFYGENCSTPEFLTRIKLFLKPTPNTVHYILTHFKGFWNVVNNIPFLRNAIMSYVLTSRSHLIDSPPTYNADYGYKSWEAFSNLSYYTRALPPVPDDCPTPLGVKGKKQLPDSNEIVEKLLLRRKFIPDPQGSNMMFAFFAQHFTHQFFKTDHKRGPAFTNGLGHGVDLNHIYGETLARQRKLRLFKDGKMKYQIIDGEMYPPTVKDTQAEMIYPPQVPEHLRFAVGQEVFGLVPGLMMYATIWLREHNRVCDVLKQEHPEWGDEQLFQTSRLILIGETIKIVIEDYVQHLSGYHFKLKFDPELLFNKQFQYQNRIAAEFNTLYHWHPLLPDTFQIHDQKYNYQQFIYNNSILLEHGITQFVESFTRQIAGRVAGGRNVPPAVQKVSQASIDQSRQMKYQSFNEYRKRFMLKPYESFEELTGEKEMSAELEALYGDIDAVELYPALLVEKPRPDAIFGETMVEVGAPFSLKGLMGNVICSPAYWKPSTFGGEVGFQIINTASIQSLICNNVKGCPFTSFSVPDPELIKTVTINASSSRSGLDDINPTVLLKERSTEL
SMILES,"average radiograph score (union 1 point, mal-union 0.5 points, non-union 0 points) [1]",normalized shear stress ([2]; 6 weeks post-fracture),"normalized torsional rigidity [2, 8]","Shear Modulus, mean ([2]; 4 wks)","Peak Torque (Tmax), mean ([2]; 4 wks)","Shear Modulus, mean ([2]; 6 wks)","Peak Torque (Tmax), mean ([2]; 6 wks)","Shear Modulus, mean ([2]; 8 wks)","Peak Torque (Tmax), mean ([2]; 8 wks)","Mal-Union (Stage III), frequency [2]","Non-Union (Stage I/II), frequency [2]","Union (Stage IV), frequency [2]",estimated plasma half-life [3],normalized maximum shear stress ([2]; 8 weeks post-fracture),"normalized torsional rigidity [2, 9]","normalized peak torque [2, 10]",effect on fracture healing at the dose and treatment regime used [2],histology of the healing femur fractures compared to untreated control rat [4],cartilage in the fracture callus [4],healing of fractured femurs by histology [4],further results
"Cc1ccc(-c2cc(C(F)(F)F)nn2-c2ccc(S(N)(=O)=O)cc2)cc1 [Celecoxib, celecoxib]",0.49,22%,50%,0.3 GPa,302 Nmm,0.9 GPa,567 Nmm,1.7 GPa,620 Nmm,3,3,0,approximately 4 hours,–,–,–,–,–,–,–,"rats tested whose fractured femurs healed as mal-unions rather than non-unions ([2]; rat, in vivo): approximately 50%"
"COc1ccc2c(c1)c(CC(=O)O)c(C)n2C(=O)c1ccc(Cl)cc1 [Indomethacin, indomethacin]",0.54,15%,34%,0.3 GPa,417 Nmm,0.4 GPa,357 Nmm,1.8 GPa,469 Nmm,1,1,6,–,not significantly different,not significantly different,not significantly different,"delays, but does not prevent fracture healing",gross abnormalities,presence of cartilage,appeared to be healing,"bridging of the fracture gap (time post fracture) ([1]; radiography, untreated rats approximately 4-5 weeks): 5-6 weeks; normalized peak torque ([2]; 6 weeks post-fracture, no drug 77): 46%"
"CS(=O)(=O)c1ccc(C2=C(c3ccccc3)C(=O)OC2)cc1 [Rofecoxib, rofecoxib]",0.32,–,–,0.2 GPa,250 Nmm,0.3 GPa,383 Nmm,0.5 GPa,338 Nmm,1,4,0,~5 h,18%,31%,50%,stops fracture healing,gross abnormalities,little or no cartilage was evident,no further healing was evident,"formation of an X-ray dense hard callus ([1]; 2 and 4 week post-fracture radiographs): did not prevent; original fracture on radiograph ([1]; after 8 weeks): still plainly evident; mechanical properties of the fractured femurs compared to no drug rats ([2]; rofecoxib: 8 weeks post-fracture, all values measured or derived): significantly less; bone resorption at the distal ends of the fracture bones ([4]; rat, in vivo): massive bone resorption event; infection rate as compared to the no drug rats [5]: statistically significant higher; pin slippage, rats having to be euthanized prior to the endpoint ([5]; male, Sprague-Dawley): ≤ 30%; plasma half-life [6]: 10 to 17 h; selectivity for COX-2 relative to COX-1 [7]: ~35 fold"
